According to publication PMC5717064, “Alternative substrate-bound conformation of bacterial solute-binding protein involved in the import of mammalian host glycosaminoglycans” (Scientific Reports, 2017):

Columns and labels:
[1] = molecular target: T1, Smon0121-Smon0122/Smon0120-Smon0120 (Streptobacillus moniliformis, UniProt D1AWD7); details: in presence of Smon0123 and disaccharide ligands
T1 construct: gene Smon_0120

[2] = molecular target: T2, Smon0123 (full-length) (Streptobacillus moniliformis, UniProt D1AWE0); test: intrinsic tryptophan fluorescence titration; assay type: binding; details: 0.1 μM protein, 0-20 μM ligand, excitation 280 nm
T2 construct: gene Smon_0123; full-length protein, expressed in E. coli, purified by TALON, Resource Q and Superdex 200; tag not described; about 57 kDa, monomer
T2 sequence (D1AWE0 entry or part of it): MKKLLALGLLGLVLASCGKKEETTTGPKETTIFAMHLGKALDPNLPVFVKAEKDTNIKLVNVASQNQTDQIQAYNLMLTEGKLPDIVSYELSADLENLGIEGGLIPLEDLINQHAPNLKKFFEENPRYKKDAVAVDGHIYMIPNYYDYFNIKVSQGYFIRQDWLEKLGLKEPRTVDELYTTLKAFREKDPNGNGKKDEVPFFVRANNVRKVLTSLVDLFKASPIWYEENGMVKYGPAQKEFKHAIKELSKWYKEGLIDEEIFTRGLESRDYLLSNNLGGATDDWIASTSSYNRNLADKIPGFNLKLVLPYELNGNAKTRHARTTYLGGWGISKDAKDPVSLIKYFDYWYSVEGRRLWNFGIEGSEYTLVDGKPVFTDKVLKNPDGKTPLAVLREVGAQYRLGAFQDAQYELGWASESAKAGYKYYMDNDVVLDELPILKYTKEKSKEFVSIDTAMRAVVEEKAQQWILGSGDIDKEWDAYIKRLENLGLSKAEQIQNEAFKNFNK

[3] = molecular target: T3, Smon0123 (N-18/C-5) (Streptobacillus moniliformis, UniProt D1AWE0); test: X-ray crystallography, […] Å; assay type: binding; details: pH 7.5, 20 °C, calcium bound; cleft between N and C domains
T3 construct: gene Smon_0123; N-terminal 18 and C-terminal 5 residues truncated (starts Met1-Lys19), expressed in E. coli, purified by DEAE and Superdex 200
T3 sequence (D1AWE0 entry or part of it): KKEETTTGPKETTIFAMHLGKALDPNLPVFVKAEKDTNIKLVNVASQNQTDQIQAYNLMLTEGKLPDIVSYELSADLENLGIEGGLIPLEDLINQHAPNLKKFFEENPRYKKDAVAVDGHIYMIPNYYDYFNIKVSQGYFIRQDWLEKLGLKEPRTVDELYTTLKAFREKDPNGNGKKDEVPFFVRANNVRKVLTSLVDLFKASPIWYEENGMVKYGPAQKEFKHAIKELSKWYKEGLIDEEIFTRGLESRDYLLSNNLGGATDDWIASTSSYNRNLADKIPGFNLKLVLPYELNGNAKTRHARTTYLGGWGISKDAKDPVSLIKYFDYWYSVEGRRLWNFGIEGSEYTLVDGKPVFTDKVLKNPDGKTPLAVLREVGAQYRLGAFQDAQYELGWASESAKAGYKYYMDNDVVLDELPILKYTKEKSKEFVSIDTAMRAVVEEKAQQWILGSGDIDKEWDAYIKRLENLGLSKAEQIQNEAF

[4] = molecular target: T3, Smon0123 (N-18/C-5); test: X-ray crystallography, […] Å; assay type: binding; details: pH 7.5; crystallised with CΔ4S6S, CΔ4S found in the cleft (contaminant or desulfation); construct printed only as Smon0123; not deposited

T1 sequence (D1AWD7 entry or part of it): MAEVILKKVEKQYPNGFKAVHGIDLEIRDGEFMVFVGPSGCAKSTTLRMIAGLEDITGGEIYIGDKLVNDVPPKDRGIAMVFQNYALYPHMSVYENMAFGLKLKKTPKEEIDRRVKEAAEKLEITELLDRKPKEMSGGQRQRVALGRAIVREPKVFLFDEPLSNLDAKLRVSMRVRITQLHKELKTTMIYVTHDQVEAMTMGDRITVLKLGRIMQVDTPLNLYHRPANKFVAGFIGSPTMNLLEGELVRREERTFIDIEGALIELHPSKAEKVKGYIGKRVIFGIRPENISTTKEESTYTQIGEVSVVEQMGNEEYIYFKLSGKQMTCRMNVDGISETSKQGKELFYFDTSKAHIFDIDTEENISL
T1 sequence (D1AWD8 entry or part of it, further chain): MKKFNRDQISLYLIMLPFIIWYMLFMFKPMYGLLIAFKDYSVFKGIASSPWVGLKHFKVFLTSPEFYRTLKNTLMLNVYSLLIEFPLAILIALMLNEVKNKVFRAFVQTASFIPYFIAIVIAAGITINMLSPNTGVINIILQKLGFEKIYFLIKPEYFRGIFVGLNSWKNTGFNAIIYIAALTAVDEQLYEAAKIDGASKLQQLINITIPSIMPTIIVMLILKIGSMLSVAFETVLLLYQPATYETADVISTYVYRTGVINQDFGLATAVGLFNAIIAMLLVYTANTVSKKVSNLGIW
T1 sequence (D1AWD9 entry or part of it, further chain): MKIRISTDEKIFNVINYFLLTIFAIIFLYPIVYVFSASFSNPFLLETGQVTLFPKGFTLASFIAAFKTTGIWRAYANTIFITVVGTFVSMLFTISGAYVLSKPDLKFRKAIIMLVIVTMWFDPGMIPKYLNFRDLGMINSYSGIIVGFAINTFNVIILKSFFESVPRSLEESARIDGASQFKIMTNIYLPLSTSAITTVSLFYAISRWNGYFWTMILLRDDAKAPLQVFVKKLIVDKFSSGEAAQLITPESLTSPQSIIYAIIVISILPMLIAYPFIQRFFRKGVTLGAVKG

Compound: Nc1ncnc2c1ncn2[C@@H]1O[C@H](COP(=O)(O)OP(=O)(O)OP(=O)(O)O)[C@@H](O)[C@H]1O [ATP]
- molybdenum blue phosphate release, proteoliposomes [1]: phosphate ion concentration generated through ATP hydrolysis in the presence of Smon0123 and ligands

Compound: CC(=O)N[C@H]1C(O)O[C@H](COS(=O)(=O)O)[C@H](OS(=O)(=O)O)[C@@H]1O[C@@H]1OC(C(=O)O)=C[C@H](O)[C@H]1O (stereo partly shown) [CΔ4S6S]
- Kd [2]: 3.86 ± 0.243 µM
- X-ray crystallography, 1.95 Å [3]: The coordinates and structure factors of Smon0123/CΔ4S6S have been deposited in the Protein Data Bank

Compound: CC(=O)N[C@H]1C(O)O[C@H](CO)[C@H](OS(=O)(=O)O)[C@@H]1O[C@@H]1OC(C(=O)O)=C[C@H](O)[C@H]1O (stereo partly shown) [CΔ4S]
- X-ray crystallography, 2.50 Å [4]: the protein was found to interact with C∆4S but not C∆4S6S in the cleft
